Results as given in publication PMC9078399, “Discovery of N-cyclobutylaminoethoxyisoxazole derivatives as novel sigma-1 receptor ligands with neurite outgrowth efficacy in cells” (RSC Advances, 2018).

Legend:
σ1 receptor [1] = target: T1, σ1 receptor (Cavia porcellus, UniProt Q60492); assay: Radioligand binding at σ1 receptor ([3H]-(+)-pentazocine, NIMH PDSP); parameters: species or system Guinea pig; details: ratio of Ki σ2 to Ki σ1
T1 construct: σ1 receptor, [^3H]-(+)-pentazocine, Guinea pig brain homogenate; from tissue; host or cells: Guinea pig brain homogenate
From the text: In this study, [^3H] pentazocine and [^3H]DTG (6) were used as the radioligands at σ1 and σ2 receptors. Firstly, we examined the effects of changing the substituents on the benzene ring. […] Mono-halogen substitution on the benzene ring exemplified by compounds 17–20 generally retained affinity for σ1 receptor compared with compound 7. […] The derivatives 21–25 also maintained similar high affinities for the σ1 receptor upon incorporation of two halogen atoms on the benzene ring. However, this is also accompanied with higher binding affinity to the σ2 receptor. […]. Next, we examined the effects of removing the methyl group on the basic nitrogen atom. […] […]. […] The results for the secondary amines 28 and 29 indicate that the hydrogen bond donor on basic nitrogen atom was beneficial for increased binding affinity to the σ1 receptor.
Radioligand competition studies were carried out by the National Institute of Mental Health's Psychoactive Drug Screening Program, Contract #HHSN-271-2008-00025-C (NIMH PDSP). The general procedures are listed as follows:
All the test compounds solution (1 mg mL^−1) were prepared by dissolving in DMSO or buffer solvent (50 mM Tris–HCl, pH = 8.0). The filter-mats were presoaked in 0.5% aqueous polyethyleneimine solution for 2 h at rt before use. All binding experiments were carried out in poly-L-lysine-coated 96-well plate and the final test concentration (50 μM, 5 μM, 1.5 μM, 500 nM, 150 nM, 50 nM, 15 nM, 5 nM, 1.5 nM, 0.5 nM, 0.05 nM) were prepared by addition of Tris–HCl solution (50 mM, pH = 8.0). The following specific radioligands and tissue source were used: (a) σ1 receptor, [^3H]-(+)-pentazocine, Guinea pig brain homogenate; (b) σ2 receptor, [^3H]-DTG, PC-12 cells. 100 μL of corresponding radioligand solution, 100 μL test compound solution and 50 μL of the respective receptor preparation into each well of the plate (total volume 250 μL). During the incubation, the plates were shaken at a speed of 500–600 rpm at the specified temperature (σ1 receptor, 37 °C, 150 min; σ2 receptor, rt, 120 min). The incubation was followed by a rapid vacuum filtration through Whatman GF/B glass filters, and the filtrates were washed twice with 10 mL of cold buffer and transferred to the 6 mL scintillation vials. EcoScint scintillation fluid (4.0 mL) was added, and the radioactivity bound was measured using a Beckman LS 6500 liquid scintillation counter. All experiments were performed at least three times.
For experimental details please refer to the PDSP website http://pdsp.med.unc.edu/.[28]

PC12 cells = assay: NGF-induced neurite outgrowth in PC-12 cells; type: cell-based, rat; details: 10 μM compound with NGF 2.5 ng mL−1, four days
Protocol: PC-12 cells, from rat pheochromocytoma cell lines, were obtained from the American Type Culture Collection (ATCC, Manassas, VA, USA). Undifferentiated PC12 cells were cultured in DMEM complete medium with 10% heat-inactivated horse serum, 5% fetal bovine serum, 100 U mL^−1 penicillin, and 100 μg mL^−1 streptomycin and maintained at 37 °C in a humidified incubator supplemented with 5% CO2. To induce differentiation, PC12 cells were seeded at a density of 1 × 10^4 cells per mL on a poly-L-lysine-coated 96-well plate and cultured in complete medium containing 2.5 ng mL^−1 NGF or different tested compounds (10 μM) concomitant with 2.5 ng mL^−1 NGF administration. Four days after incubation, morphometric analysis was performed on digitized images of live cells taken under phase contrast illumination with an inverted microscope linked to a camera. Images of five fields per well were taken with an average of 20 cells per field. The number of differentiated cells was determined by counting cells that had at least one neurite with a length equal to the cell body diameter and was expressed as a percentage of the total cells in the field. The counting was performed in a blinded manner. All experiments were performed at least five times.

σ1 receptor [2] = target: T1, σ1 receptor; parameters: method as in PMID 27309376; details: [3H]-(+)-pentazocine; Guinea pig homogenate; compound 7 value from the literature; cited from earlier work
[3] = target: DAT: dopamine transporter (Homo sapiens, UniProt Q01959); parameters: method as in PMID 27309376; details: [3H] WIN35428; literature values; cited from earlier work
[4] = target: NET: norepinephrine transporter (Homo sapiens, UniProt P23975); parameters: method as in PMID 27309376; details: [3H] nisoxetine; literature values; cited from earlier work
[5] = target: SERT: serotonin transporter (Homo sapiens, UniProt P31645); parameters: method as in PMID 27309376; details: [3H] citalopram; literature values; cited from earlier work
σ1 receptor [6] = target: σ1 receptor; parameters: method as in PMID 21278085, PMID 15170821, PMID 18647636, PMID 22935988, PMID 21967807; details: representative σ1 receptor ligands, Fig. 1; cited from earlier work
σ2 receptor = target: σ2 receptor; parameters: method as in PMID 21278085, PMID 15170821, PMID 18647636, PMID 22935988, PMID 21967807; details: representative σ1 receptor ligands, Fig. 1; cited from earlier work

T1 sequence (Q60492 whole entry): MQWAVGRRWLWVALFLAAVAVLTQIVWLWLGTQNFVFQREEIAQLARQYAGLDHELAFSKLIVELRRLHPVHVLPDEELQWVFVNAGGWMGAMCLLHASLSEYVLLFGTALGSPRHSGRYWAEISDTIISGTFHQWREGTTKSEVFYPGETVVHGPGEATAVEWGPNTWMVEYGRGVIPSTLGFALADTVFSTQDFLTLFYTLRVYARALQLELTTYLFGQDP
Chain of NET: norepinephrine transporter (P23975 whole entry): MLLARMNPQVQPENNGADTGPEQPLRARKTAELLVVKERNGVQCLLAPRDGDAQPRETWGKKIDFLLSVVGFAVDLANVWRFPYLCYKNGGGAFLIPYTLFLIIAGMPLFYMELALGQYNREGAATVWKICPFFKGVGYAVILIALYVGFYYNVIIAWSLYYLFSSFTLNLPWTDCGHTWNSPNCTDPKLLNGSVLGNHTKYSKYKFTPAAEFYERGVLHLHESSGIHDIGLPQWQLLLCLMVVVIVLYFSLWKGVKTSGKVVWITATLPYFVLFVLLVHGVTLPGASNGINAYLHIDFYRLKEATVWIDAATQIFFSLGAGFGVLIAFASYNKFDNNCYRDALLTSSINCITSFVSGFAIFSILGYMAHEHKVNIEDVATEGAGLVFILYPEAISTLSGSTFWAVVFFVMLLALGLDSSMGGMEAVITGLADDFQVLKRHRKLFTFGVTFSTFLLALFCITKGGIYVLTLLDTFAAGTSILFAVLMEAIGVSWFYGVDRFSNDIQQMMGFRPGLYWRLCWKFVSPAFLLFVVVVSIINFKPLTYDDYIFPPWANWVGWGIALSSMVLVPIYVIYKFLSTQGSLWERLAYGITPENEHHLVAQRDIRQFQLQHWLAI
Chain of SERT: serotonin transporter (P31645 whole entry): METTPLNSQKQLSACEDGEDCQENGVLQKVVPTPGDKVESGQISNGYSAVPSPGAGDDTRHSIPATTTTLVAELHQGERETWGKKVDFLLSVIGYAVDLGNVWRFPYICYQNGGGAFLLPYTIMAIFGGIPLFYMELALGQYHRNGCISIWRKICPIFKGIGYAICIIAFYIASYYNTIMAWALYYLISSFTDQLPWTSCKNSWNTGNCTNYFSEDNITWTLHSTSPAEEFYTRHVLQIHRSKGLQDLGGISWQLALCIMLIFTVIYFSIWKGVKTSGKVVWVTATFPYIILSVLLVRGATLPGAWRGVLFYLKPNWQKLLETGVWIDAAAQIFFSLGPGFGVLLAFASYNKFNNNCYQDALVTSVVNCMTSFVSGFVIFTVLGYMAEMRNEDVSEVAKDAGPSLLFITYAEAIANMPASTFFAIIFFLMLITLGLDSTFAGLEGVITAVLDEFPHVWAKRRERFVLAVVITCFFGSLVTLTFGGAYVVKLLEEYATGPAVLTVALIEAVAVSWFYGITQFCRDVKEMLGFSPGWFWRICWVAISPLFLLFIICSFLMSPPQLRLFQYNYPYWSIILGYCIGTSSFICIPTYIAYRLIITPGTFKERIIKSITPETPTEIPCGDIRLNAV
Chain of DAT: dopamine transporter (Q01959 whole entry): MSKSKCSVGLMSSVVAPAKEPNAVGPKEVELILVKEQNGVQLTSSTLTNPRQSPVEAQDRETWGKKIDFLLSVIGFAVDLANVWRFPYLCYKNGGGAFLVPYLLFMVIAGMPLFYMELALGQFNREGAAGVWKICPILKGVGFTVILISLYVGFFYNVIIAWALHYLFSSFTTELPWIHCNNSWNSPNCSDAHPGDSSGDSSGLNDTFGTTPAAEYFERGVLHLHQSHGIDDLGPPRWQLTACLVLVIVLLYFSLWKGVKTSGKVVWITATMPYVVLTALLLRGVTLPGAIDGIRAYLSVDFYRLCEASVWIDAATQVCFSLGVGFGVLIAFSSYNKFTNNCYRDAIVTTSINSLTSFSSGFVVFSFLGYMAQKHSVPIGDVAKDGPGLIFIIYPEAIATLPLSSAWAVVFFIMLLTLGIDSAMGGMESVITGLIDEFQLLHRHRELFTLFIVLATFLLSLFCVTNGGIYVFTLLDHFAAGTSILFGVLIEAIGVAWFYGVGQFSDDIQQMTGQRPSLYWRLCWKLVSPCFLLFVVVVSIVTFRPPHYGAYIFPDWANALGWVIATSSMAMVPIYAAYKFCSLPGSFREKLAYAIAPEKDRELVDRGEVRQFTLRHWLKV

CN(CCOc1cc(COc2ccccc2)on1)C1CCC1 [Compound 7]
Selectivity (Ki σ2/Ki σ1) (σ1 receptor [1]): 171
Effect on NGF-induced neurite outgrowth (PC12 cells): synergistic neurite outgrowth effects at a level similar to that of the positive control RC-33
Ki (σ1 receptor [2]): 1.8 ± 0.2 nM
Ki, DAT [3]: NA ^c (NA: not active, defined as <50% binding in the primary assay at 10 μM)
Ki, NET [4]: NA (NA: not active, defined as <50% binding in the primary assay at 10 μM)
Ki, SERT [5]: NA (NA: not active, defined as <50% binding in the primary assay at 10 μM)

CC(CCN1CCCCC1)c1ccc(-c2ccccc2)cc1 (stereo not shown) [RC-33]
Ki (σ1 receptor [6]): 0.7 nM
Ki (σ2 receptor): 103 nM

COc1ccc(CCN2CCN(CCCc3ccccc3)CC2)cc1OC [SA4503]
Ki (σ1 receptor [6]): 17 nM
Ki (σ2 receptor): 1800 nM
